Experimental data taken from paper PMC11819603, “Development of a reliable, sensitive, and convenient assay for the discovery of new eIF5A hypusination inhibitors” (PLOS ONE, 2025).
pEC50, pIC50: −log10 of the molar value. Where two headings read alike, the source gives them in different places.

Tests used:
DHPS [1] = settings: ref 35; read-out: IC50; cited from earlier work
DHPS [2] = biological target: T1, DHPS (Homo sapiens, UniProt P49366); test: Hyp'Assay: cell-free eIF5A hypusination in 96-well plates (recombinant eIF5A, DHPS, DOHH; anti-hypusine antibody Hpu24), substance present in the DHPS step; assay type: biochemical; settings: for concentration from which inhibition of hypusination was detectable / hypusination signal, Mean (quantification from Figure 5A): 5 μM spermidine; for hypusination signal, Mean (quantification from Figure 5A): control 98,5
T1 construct: host or cells: E. coli BL21 (DE3)
T1 sequence (P49366 1-369): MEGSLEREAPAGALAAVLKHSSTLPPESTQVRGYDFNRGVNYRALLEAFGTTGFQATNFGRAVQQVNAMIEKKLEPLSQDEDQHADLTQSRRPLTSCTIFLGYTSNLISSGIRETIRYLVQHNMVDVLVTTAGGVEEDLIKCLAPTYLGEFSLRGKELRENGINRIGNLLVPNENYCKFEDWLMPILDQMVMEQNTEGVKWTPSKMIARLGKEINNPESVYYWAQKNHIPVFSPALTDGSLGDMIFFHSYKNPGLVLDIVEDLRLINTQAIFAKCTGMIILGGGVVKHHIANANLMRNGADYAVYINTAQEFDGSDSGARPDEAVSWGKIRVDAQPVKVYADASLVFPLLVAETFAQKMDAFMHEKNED
Description: The principle of the Hyp’Assay (Fig 2A) is to perform eIF5A hypusination reaction in 96-well plates, allow eIF5A to adsorb to the plate, incubate with an anti-hypusine antibody and a secondary antibody conjugated to HRP and reveal hypusination using TMB as a substrate.
(§1) […] Then 10 μL containing 1 μg of DOHH with 10 μM Fe^2+ (H8FeN2O8S2^. 6H2O) were added. After 1 h proteins were analyzed by Western Blot using antibodies toward DHPS, DOHH, Hypusine, and eIF5A.
(§2) The cell-free reaction described in 4.4 is performed in triplicates in a 96-wells plate (MaxiSorp, ThermoFisher) in the presence of 3 μg of eIF5A, 2 μg of DHPS, and 2 μg of DOHH by well. The reaction product, hypusinated eIF5A, is adsorbed onto the plate overnight at 4°C. The plate is washed (100 μL/well) thrice with PBS-T (PBS– 0.05% Tween20), then saturated with 1% non-fat dry milk in PBS-T for 2 h at room temperature. The plate is washed thrice with PBS-T and incubated overnight at 4°C with the anti-hypusine antibody (1:2000 in saturation buffer, 50 μL/well). The next day and after 5 washes with PBS-T, HRP-coupled anti-rabbit secondary antibody diluted 1:5000 in saturation buffer (50 μL/well) is added for 2 h at room temperature.

[3] = system: eIF5A hypusination in MCF7 cells; test: eIF5A hypusination in intact MCF7 cells, Western blot; assay type: cell-based, human; settings: 40 μM, 24 h, Ctrl 100, 4 experiments
Description: We tested the ability of the GC7 analogs to inhibit hypusination in intact cells. MCF-7 cells (Fig 5B), a classical model of breast cancer cell line, and HT29 cells (Fig 5C), a cell model of colorectal cancer, were treated with 40 μM of GC7, 1, 2, 3, and 4 for 24h. Cells were lysed and analyzed by Western blot. As observed, none of the molecules modified eIF5A expression. […] GC7 analogs inhibited hypusination from 35 to 55%.
The human breast cancer cell line MCF7 (HTB-22 ATCC) and colorectal adenocarcinoma HT29 (HTB-38 ATCC) were cultured in DMEM (Gibco) supplemented with 10% FBS (Dutscher), 10 U/mL penicillin, and […] streptomycin. 1 mM of aminoguanidine was added to the medium to inhibit the degradation of GC7 and polyamines by amine oxidase from the serum and the production of reactive oxygen species. Cells were maintained at 37°C, 5% CO2 in a humid atmosphere.
After treatment, cells were washed with ice-cold PBS and lysed in RIPA Buffer (50 mM Tris pH 7.5, 150 mM NaCl, 0.1% SDS, 0.5% Na Deoxycholate, 5 mM NaF, 2.5 mM Na4P2O7, 1% NP4O) containing a protease inhibitor cocktail (complete Roche). 10 μg of proteins were separated by SDS PAGE and transferred to a PVDF membrane (Immobilon-P Millipore). The membranes were probed with the appropriate primary antibody that was detected by horseradish peroxidase-conjugated secondary antibody (Jackson Immunoresearch) and visualized by chemiluminescence (ECL Amersham RPN 3244) using a Fuji LAS-4000 imager. ImageJ® software was used to quantify band intensity and the ratios of proteins of interest were normalized to a loading control. Full-length Western blots are provided in the supplementary data (S19, S20 Figs).

human DHPS = settings: read-out: Km of human DHPS for spermidine, cited from earlier work
DOHH = biological target: T2, DOHH (Homo sapiens, UniProt Q9BU89); test: Hyp'Assay, substance added after the deoxyhypusination reaction (DOHH step); assay type: biochemical; settings: control 100,0
T2 construct: pelB leader (N); host or cells: E. coli BL21 (DE3)
T2 sequence (Q9BU89 1-302): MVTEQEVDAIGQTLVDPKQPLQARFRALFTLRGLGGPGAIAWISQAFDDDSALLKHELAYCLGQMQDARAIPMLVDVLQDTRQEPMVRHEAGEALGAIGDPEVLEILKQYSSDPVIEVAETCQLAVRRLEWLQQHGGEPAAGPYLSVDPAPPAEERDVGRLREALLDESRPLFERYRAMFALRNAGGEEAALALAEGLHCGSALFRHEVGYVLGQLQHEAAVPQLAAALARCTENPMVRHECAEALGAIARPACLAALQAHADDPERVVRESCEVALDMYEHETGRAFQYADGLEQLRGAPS
Description: We then tested the ability of DOHH inhibitors to inhibit eIF5A hypusination using the Hyp’Assay. During the Hyp’Assay, DOHH inhibitors were added after the deoxyhypusination reaction.
To address this issue, we compared the ability of GC7 to inhibit DHPS or DOHH by adding GC7 during the first step of the Hyp’Assay; when DHPS mediates the deoxyhypusination reaction (Fig 2A), or only during the second step, when DOHH hydroxylate deoxyhypusinated eIF5A. […] When finding new hypusination inhibitors adding them during the first or the second step of the Hyp’Assay will allow us to determine if the inhibition affects DHPS or DOHH. Another way to discriminate between DHPS or DOHH inhibitors would be to use Hpu98, an antibody that recognized both hypusinated and deoxyhypusinated eIF5A, instead of Hpu24, which is specific for hypusinated eIF5A [18]. […] We performed a new Hyp’Assay by omitting DOHH in the reaction mix and using the Hpu98 antibody. First, we performed a dose response experiment with spermidine at pH: 8.0 and 9.0 (Fig 3E). […] We also tested the ability of GC7 (Fig 3F) and CPX or EDTA (Fig 3G) to inhibit DHPS.
as §1, §2

DHPS [4] = biological target: T1, DHPS; test: Hyp'Assay without DOHH: deoxyhypusination of eIF5A revealed with Hpu98 antibody; assay type: biochemical
From the text: To address this issue, we compared the ability of GC7 to inhibit DHPS or DOHH by adding GC7 during the first step of the Hyp’Assay; when DHPS mediates the deoxyhypusination reaction (Fig 2A), or only during the second step, when DOHH hydroxylate deoxyhypusinated eIF5A. […] This confirms the specificity of GC7 towards DHPS. When finding new hypusination inhibitors adding them during the first or the second step of the Hyp’Assay will allow us to determine if the inhibition affects DHPS or DOHH. Another way to discriminate between DHPS or DOHH inhibitors would be to use Hpu98, an antibody that recognized both hypusinated and deoxyhypusinated eIF5A, instead of Hpu24, which is specific for hypusinated eIF5A [18]. […] We performed a new Hyp’Assay by omitting DOHH in the reaction mix and using the Hpu98 antibody. First, we performed a dose response experiment with spermidine at pH: 8.0 and 9.0 (Fig 3E). The Hyp’Assay allows the detection of deoxyhypusinated eIF5A in a spermidine-dependent manner. Under these conditions, deoxyhypusination was equally efficient at both pH tested. […] We also tested the ability of GC7 (Fig 3F) and CPX or EDTA (Fig 3G) to inhibit DHPS. […] This provided us with another method to distinguish between DHPS and DOHH inhibitors.
as §2

[5] = concentration 1 (no unit on page; Fig 5A 0 to 1 mM)
[6] = concentration 10 (no unit on page; Fig 5A 0 to 1 mM)
[7] = concentration 100 (no unit on page; Fig 5A 0 to 1 mM)
[8] = concentration 1000 (no unit on page; Fig 5A 0 to 1 mM)

COc1ccccc1Oc1c(Cl)nc(-c2ccc(I)cc2)nc1Cl [GL-1, 4,6-dichloro-2-(4-iodophenyl)-5-(2-methoxyphenoxy)pyrimidine]
pIC50 (DHPS [1]): 6.68

N=C(N)NCCCCCCCO [compound 3, 7-hydroxyheptylguanidine]
concentration from which inhibition of hypusination was detectable (DHPS [2]): 1 µM | hypusination signal, Mean (quantification from Figure 5A) (DHPS [2]; [5]): 75,7 | hypusination signal, Mean (quantification from Figure 5A) (DHPS [2]; [6]): 65,6 | hypusination signal, Mean (quantification from Figure 5A) (DHPS [2]; [7]): 63,6 | hypusination signal, Mean (quantification from Figure 5A) (DHPS [2]; [8]): 58,2 | hypusinated eIF5A, Western blot quantification, Mean (Figure 5B) [3]: 50.5

N=C(N)NCCCCCCCCO [compound 4, 8-hydroxyoctylguanidine]
concentration from which inhibition of hypusination was detectable (DHPS [2]): 100 µM | hypusination signal, Mean (quantification from Figure 5A) (DHPS [2]; [5]): 109,4 | hypusination signal, Mean (quantification from Figure 5A) (DHPS [2]; [6]): 86,9 | hypusination signal, Mean (quantification from Figure 5A) (DHPS [2]; [7]): 67,2 | hypusination signal, Mean (quantification from Figure 5A) (DHPS [2]; [8]): 64,0 | hypusinated eIF5A, Western blot quantification, Mean (Figure 5B) [3]: 64.75

NCCCCNCCCN [spermidine]
Km (human DHPS; ref 23): 4 µM | Km (human DHPS; ref 24): 7.6 µM | pEC50 (DHPS [2]): 5.30 | hypusination signal with the substance as substrate, Mean (quantification from Figure S3) (DHPS [2]; substrate concentration 0,01 (mM)): 1,46 | hypusination signal with the substance as substrate, Mean (quantification from Figure S3) (DHPS [2]; substrate concentration 0,1 (mM)): 31,22 | hypusination signal with the substance as substrate, Mean (quantification from Figure S3) (DHPS [2]; substrate concentration 0,0001 (mM)): -0,19 | hypusination signal with the substance as substrate, Mean (quantification from Figure S3) (DHPS [2]; substrate concentration 0,001 (mM)): -0,21 | hypusination signal with the substance as substrate, Mean (quantification from Figure S3) (DHPS [2]; substrate concentration 1 (mM)): 68,32 | hypusination signal with the substance as substrate, Mean (quantification from Figure S3) (DHPS [2]; substrate concentration 10 (mM)): 100,00 | hypusination signal with the substance as substrate, Mean (quantification from Figure S3) (DHPS [2]; substrate concentration 100 (mM)): 86,96 | hypusination signal with the substance as substrate, Mean (quantification from Figure S3) (DHPS [2]; substrate concentration 1000 (mM)): 66,59 | hypusination signal, Mean (quantification from Figure 3C) (DOHH; concentration 1 (no unit on page; Fig 3C dose-response 0 to 100 μM)): 84,83 | hypusination signal, Mean (quantification from Figure 3C) (DOHH; concentration 10 (no unit on page; Fig 3C dose-response 0 to 100 μM)): 82,59 | deoxyhypusination signal, Mean (quantification from Figure 3E) (DHPS [4]; pH: 8.0, spermidine 1 µM as substrate): 0,00 | deoxyhypusination signal, Mean (quantification from Figure 3E) (DHPS [4]; pH: 8.0, spermidine 10 µM as substrate): 50,47 | deoxyhypusination signal, Mean (quantification from Figure 3E) (DHPS [4]; pH: 8.0, spermidine 100 µM as substrate): 87,29 | deoxyhypusination signal, Mean (quantification from Figure 3E) (DHPS [4]; pH: 8.0, spermidine 1000 µM as substrate): 98,05 | deoxyhypusination signal, Mean (quantification from Figure 3E) (DHPS [4]; pH: 8.0, spermidine 10000 µM as substrate): 100,00 | deoxyhypusination signal, Mean (quantification from Figure 3E) (DHPS [4]; pH: 9.0, spermidine 1 µM as substrate): 0,00 | deoxyhypusination signal, Mean (quantification from Figure 3E) (DHPS [4]; pH: 9.0, spermidine 10 µM as substrate): 51,14 | deoxyhypusination signal, Mean (quantification from Figure 3E) (DHPS [4]; pH: 9.0, spermidine 100 µM as substrate): 85,89
